Assay results reported in US8008260B2, “Methods of protecting against apoptosis using lipopeptides” (Cleveland Clinic Foundation, priority 2005, dated 2011).
Peptide text beside a SMILES is read from it. * marks the point of attachment. Propyl(2R-PamO,3-PamO) = CCCCCCCCCCCCCCCC(=O)OC[C@H](C*)OC(=O)CCCCCCCCCCCCCCC

Assays:
ICR mice [1] = test: Radiation LD50/30 and dose modification factor (DMF30); type: in vivo
Method: To determine DMF (dose modification factor), 3 μg of CBLB601/mouse was injected i.m. 24 hr prior to irradiation and control mice were injected with PBS. Both drug-injected and control groups received a single dose of TBI covering the dose range that leads to 10-90% mortality within the chosen time intervals (7 days for the gastrointestinal syndrome mortality, and 30 days for the hematopoietic syndrome mortality). The percent mortality-radiation dose graphs were built and LD50/7 and LD50/30 (LD50 at 7 days and 30 days, respectively) were calculated using probit or logit statistical analysis. DMF (also known as dose reduction factor, DRF) was calculated as a ratio of radiation LD50 for CBLB601-treated groups and radiation LD50 for vehicle-treated groups of mice for the chosen survival time point, 7 or 30 days. To calculate DMF30, which is the DMF at day 30 post-irradiation, the radiation LD50/30 values for mice treated with PBS or 3 μg of CBLB601 was determined. For this, PBS-injected groups were irradiated with doses of 6, 6.5, 7, and 7.7 Gy of TBI, and CBLB601-injected groups were irradiated with doses of 10, 10.5, 11, 11.5, and 12 Gy of TBI. […] However, inconsistency in the response to some radiation doses (7 Gy appeared non-toxic whereas 6.5 Gy caused 60% lethality at 30 days) in the control mice precluded an accurate calculation of the DMF30 for CBLB601. Nevertheless, it was expected that the LD50/30 for ICR mice was around 7 Gy [an average for the majority of mouse strains; Monobe et al., Radiother Oncology 73 Suppl 2: S12709, 2004)]. Thus, the value of DMF30 for CBLB601 was estimated roughly as ˜1.6.

ICR mice [2] = test: Immune status of mice rescued from TBI (spleen and thymus weight, histology, flagellin immunization); type: in vivo
Method: To check the status of their immune systems, ICR mice were exposed to lethal (10 Gy) or non-lethal (6 Gy) doses of TBI 24 hr after they had been injected (i.m.) with 3 μg CBLB601/mouse or PBS. Groups of five mice from each condition were sacrificed very three days and their spleens and thymuses were removed and weighed. The weights of the spleens were normalized to the body weights of the corresponding animals and the results are presented in FIG. 15. PBS-treated mice that were exposed to 6 Gy of radiation took about 13-14 days to restore their spleens to normal weights, whereas CBLB601-treated mice exposed to 6 Gy of radiation had normal spleen weights by day 8. […] It took a longer period of time (˜30 days) to restore the thymuses to normal weights (not shown).
The spleens and thymuses from control and CBLB601-injected mice were examined microscopically for morphological changes at 3, 10 and 30 days after irradiation. […] There was no evidence of recovery of the splenic white pulp depletion in either group at day 10. Regenerative lymphoid hyperplasia in the thymus was evident in both groups at day 10, with the regeneration slightly more advanced in the control that in the CBLB601-treated mice.
To test the immune response of mice rescued from a lethal dose of gamma-irradiation (10 Gy of TBI) by CBLB601, several groups of such mice were subjected to immunization with a strong antigen, Salmonella flagellin. The mice were first immunized at 8, 18, or 20 weeks after irradiation, at which time they were 18, 25, and 33 weeks of age, respectively. Non-irradiated naïve mice at 29 weeks of age were used as a positive control for the immune response. The mice received a boost of flagellin one week after the first immunization, and another boost three weeks after the 2nd boost; anti-flagellin antibody titers were measured in mouse serum. To test the secondary immune response, the mice were bled again a month later to insure reduction of the antibody titers. This was followed by a 3rd boost of the antigen injection and measurement of anti-flagellin antibodies titers 10 days later. At the time of the 3rd boost, the irradiation mice were 38, 30, and 23 weeks old, and the control mice were 34 weeks old.

[3] = 3 μg/mouse i.m. 24 hr prior to irradiation, ProBit analysis

CCCCCCCCCCCCCCCC(=O)OC[C@H](CSC[C@H](N)C(=O)N[C@@H](CO)C(=O)N[C@@H](CCCCN)C(=O)N[C@@H](CCCCN)C(=O)N[C@@H](CCCCN)C(=O)N[C@@H](CCCCN)C(=O)O)OC(=O)CCCCCCCCCCCCCCC [CBLB601, R-PAM2C-SKKKK] (H-C(Propyl(2R-PamO,3-PamO))SKKKK-OH)
radiation LD50/30, average (ICR mice [1]; [3]): ~11.32 Gy
radiation LD50/30, range (ICR mice [1]; [3]): 11.07-11.61 Gy
DMF30 (dose modification factor at day 30) (ICR mice [1]; 3 μg/mouse i.m. 24 hr prior, control LD50/30 taken as around 7 Gy from literature): ~1.6
time to restore the thymuses to normal weights (ICR mice [2]; 3 μg/mouse i.m. 24 hr before TBI, not shown): ~30 days
day by which spleen weights were normal (ICR mice [2]; 6 Gy TBI, 3 μg/mouse i.m. 24 hr before): ≤ 8 days
day by which spleen weights were completely restored (ICR mice [2]; 10 Gy TBI, 3 μg/mouse i.m. 24 hr before): 13 to 14 days
spleen histology, extramedullary hematopoiesis (ICR mice [2]; 10 days post-irradiation, 10 Gy): mild to moderate multifocal extramedullary hematopoiesis (EMH)
humoral immune response against flagellin (ICR mice [2]; mice rescued from 10 Gy TBI, immunized 8, 18 or 20 weeks after irradiation): robust humoral immune response against flagellin that was indistinguishable from that of the naïve control mice
